In US12612420B2, “Arginase inhibitors and methods of use thereof” (Molecure S.A., priority 2020, dated 2026):
Structures can show the parent of a compound that is named as a salt.

What was measured:
[1] = biological target: T1, recombinant human arginase 2 (hARG2) (Homo sapiens, UniProt P78540); assay: Human arginase inhibition assay (colorimetric urea detection), arginase 2; type: biochemical; conditions: IC50 class; hydrochloride salts; 1 h at 37° C., pH 7.4, 20 mM L-arginine, 200 μM MnCl2; read-out: Activity Class (ARG II)
T1 construct: made in house; host or cells: E. coli
T1 sequence (P78540 23-354): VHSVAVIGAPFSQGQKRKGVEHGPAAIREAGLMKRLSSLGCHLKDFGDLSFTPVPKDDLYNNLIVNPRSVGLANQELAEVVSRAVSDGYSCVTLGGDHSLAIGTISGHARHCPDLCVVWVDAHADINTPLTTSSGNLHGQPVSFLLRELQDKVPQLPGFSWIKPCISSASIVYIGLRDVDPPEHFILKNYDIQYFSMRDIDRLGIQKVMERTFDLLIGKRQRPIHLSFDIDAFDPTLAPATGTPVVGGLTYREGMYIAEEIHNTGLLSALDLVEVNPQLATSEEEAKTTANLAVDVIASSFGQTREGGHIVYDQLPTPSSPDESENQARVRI
Experimental: (§1) Human Arginase Inhibition Assay
(§2) The inhibitory activities of the compounds of the invention were assessed using recombinant human arginases 1 and 2. Both enzymes were biosynthesized using a prokaryotic expression system (E. coli) and purified by fast protein liquid chromatography (FPLC). The compounds were screened in 96-well plates at the total reaction volume of 100 μL. Briefly, recombinant enzymes were incubated with the tested compounds for 1 h at 37° C. in the reaction buffer (100 mM sodium phosphate buffer, 130 mM NaCl, 1 mg/mL BSA, pH 7.4) containing substrate (L-arginine hydrochloride, 10 mM for hARG1 and 20 mM for hARG2) and cofactor (200 μM MnCl2). The assay is based on the detection of urea, which is generated during the conversion of L-arginine into L-omithine catalyzed by ARG1 or ARG2 (Baggio et al. J Pharmacol. Exp. Ther. 1999, 290, 1409-1416). The colorimetrically detectable product was developed by adding a mixture of reagent A (4 mM oPA, 50 mM boric acid, 1 M sulfuric acid, 0.03% Brij-35) and reagent B (4 mM NED, 50 mM boric acid, 1 M sulfuric acid, 0.03% Brij-35) in equal proportions. The absorbance for each well was measured at 515 nm and the enzyme inhibition was calculated. The urea production in the absence of any tested compound was considered as maximal enzyme activity. The absorbance at the absence of arginase (background) was subtracted from all the values. The normalized values were analyzed using GraphPad Prism 7.0 software by plotting inhibition curves and determining the IC50 values.
(§3) The inhibitory activity classes of the hydrochloride salts of the exemplary compounds according to the invention are presented in Table 1

[2] = biological target: T2, intracellular arginase in macrophages isolated from murine bone marrow (BMDM) (Mus musculus, UniProt Q61176); assay: Cell-based assay: intracellular arginase in bone marrow derived macrophages (BMDM), urea in culture medium; set-up: species or system murine (C57BL/6 mice); conditions: IC50 class; M2-polarised murine BMDM (M-CSF, TGF-β, IL-4), urea in medium after 24 hours
T2 construct: endogenous in cells; host or cells: primary bone-marrow-derived macrophages from C57BL/6 mice, cultured with M-CSF, TGF-β and IL-4
T2 sequence (Q61176 1-323): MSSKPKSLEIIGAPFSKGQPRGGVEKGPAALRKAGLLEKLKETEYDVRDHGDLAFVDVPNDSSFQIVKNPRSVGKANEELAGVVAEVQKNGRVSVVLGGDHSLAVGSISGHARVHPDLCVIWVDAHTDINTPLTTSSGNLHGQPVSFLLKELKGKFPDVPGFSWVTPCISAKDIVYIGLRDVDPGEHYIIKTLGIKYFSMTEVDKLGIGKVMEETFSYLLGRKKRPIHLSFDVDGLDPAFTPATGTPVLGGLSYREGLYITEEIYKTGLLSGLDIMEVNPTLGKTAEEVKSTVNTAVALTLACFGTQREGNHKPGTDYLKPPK
Experimental: To illustrate the lower cellular activity of the compounds according to the invention versus arginase inhibitors disclosed in U.S. Ser. No. 10/391,077 B2, the selected examples were tested in cell-based assay using murine primary macrophages. Lower intracellular activity observed for the compounds according to the invention may potentially result in lower hepatotoxicity compared to the arginase inhibitors disclosed in U.S. Ser. No. 10/391,077 B2.
Efficacy of Selected Examples Towards Intracellular Arginase in Macrophages Isolated from Murine Bone Marrow—Bone Marrow Derived Macrophages (BMDM)
Murine bone marrow-derived or peritoneal macrophages comprise a convenient in vitro model that enables differentiation of these cells towards M1 or M2 macrophages and further use for the study.
Materials & Methods: The assay was performed according to modified literature protocol (Pineda-Torra I et al., Methods Mol Biol. 2015; 1339:101-9. Mia S et al., Scand J Immunol. 2014 May; 79(5):305-14). The femurs and tibias were isolated from C57BL/6 mice. Bones were cleaned from all attached tissues by using a sterile swab without affecting the bone structure. The sides of the bones were cut off and flush with cold sterile PBS by using 26-G needle S into a 50 mL sterile tube with a cell strainer (Falcon™, Cat. No. U00149), until the bone cavity appeared white. Then, the cells were centrifuged (5 min at 500×G, 4° C.), washed twice with PBS and counted. Cells were plated in Petri dish in density of 1×10^6/mL and cultured in DMEM (Gibco, Cat. No. 31331-029) with 10% FBS, 1% pen-strep and 50 ng/mL M-CSF (PeproTech, Cat. No. 315-02), (37° C., 5% CO2). After five days cells were subcultured into P96 plate (BD, Cat. No. 353072) at the density of 64,000 cells/well in medium supplemented with 50 ng/mL M-CSF, 20 ng/mL TGF-β and 30 ng/mL IL-4 (Biomibo Cat. No. 214-1). One day later exemplary compounds (dissolved in PBS) were added in several different concentrations and 24 hours later the level of urea was measured in the culture medium in each well (Jung D et al., Clin Chem. 1975, 21(8):1136-40). The concentration of urea in the absence of any compound was considered as the maximum enzyme activity. The absorbance of cell culture media (background) was subtracted from all the values.
The IC50 values were calculated using GraphPad Prism 7.0. and assigned into the following classes: A=10-100 μM; and B>100 μM.

[3] = biological target: T3, recombinant human arginase 1 (hARG1) (Homo sapiens, UniProt P05089); assay: Human arginase inhibition assay (colorimetric urea detection), arginase 1; type: biochemical; conditions: IC50 class; hydrochloride salts; 1 h at 37° C., pH 7.4, 10 mM L-arginine, 200 μM MnCl2; read-out: Activity Class (ARG I)
T3 construct: made in house; host or cells: E. coli
T3 sequence (P05089 1-322): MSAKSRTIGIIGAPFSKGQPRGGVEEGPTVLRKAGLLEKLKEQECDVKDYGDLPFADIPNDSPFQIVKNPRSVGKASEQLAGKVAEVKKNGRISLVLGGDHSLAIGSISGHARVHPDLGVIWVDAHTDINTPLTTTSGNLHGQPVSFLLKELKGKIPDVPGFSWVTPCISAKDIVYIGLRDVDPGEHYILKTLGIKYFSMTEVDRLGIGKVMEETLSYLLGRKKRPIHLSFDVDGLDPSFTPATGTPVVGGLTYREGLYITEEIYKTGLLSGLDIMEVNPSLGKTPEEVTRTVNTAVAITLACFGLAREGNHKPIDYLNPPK
Experimental: as §1, §2, §3

Structure (SMILES) | IC50 [1] [nM] | IC50 [2] [nM] | IC50 [3] [nM]
CC(C)[C@H](N)C(=O)NC[C@@H]1CC[C@@H](CCB(O)O)C[C@]1(N)C(=O)O [Example 2, (1R,2S,5R)-1-Amino-2-(((S)-2-amino-3-methylbutanamido)methyl)-5-(2-boronoethyl)cyclohexane-1-carboxylic acid dihydrochloride] | 200 to 299 | 10000 to 100000 | 100 to 199
N[C@@H](Cc1ccccc1)C(=O)NC[C@@H]1CC[C@@H](CCB(O)O)C[C@]1(N)C(=O)O [Example 3, (1R,2S,5R)-1-Amino-2-(((S)-2-amino-3-phenylpropanamido)methyl)-5-(2-boronoethyl)cyclohexane-1-carboxylic acid dihydrochloride] | > 300 | > 100000 | > 300
NCC(=O)NC[C@@H]1CC[C@@H](CCB(O)O)C[C@]1(N)C(=O)O [Example 4, (1R,2S,5R)-1-Amino-2-((2-aminoacetamido)methyl)-5-(2-boronoethyl)cyclohexane-1-carboxylic acid dihydrochloride] | > 300 | > 100000 | 1 to 99
N[C@]1(C(=O)O)C[C@H](CCB(O)O)CC[C@H]1CNC(=O)[C@@H]1CCCN1 [Example 5, (1R,2S,5R)-1-Amino-5-(2-boronoethyl)-2-(((S)-pyrrolidine-2-carboxamido)methyl)cyclohexane-1-carboxylic acid dihydrochloride] | > 300 | > 100000 | 1 to 99
CC(C)C[C@H](N)C(=O)NC[C@@H]1CC[C@@H](CCB(O)O)C[C@]1(N)C(=O)O [Example 6, (1R,2S,5R)-1-Amino-2-(((S)-2-amino-4-methylpentanamido)methyl)-5-(2-boronoethyl)cyclohexane-1-carboxylic acid dihydrochloride] | 100 to 199 | 10000 to 100000 | 1 to 99
NCCCC[C@H](N)C(=O)NC[C@@H]1CC[C@@H](CCB(O)O)C[C@]1(N)C(=O)O [Example 9, (1R,2S,5R)-1-Amino-5-(2-boronoethyl)-2-(((S)-2,6-diaminohexanamido)methyl)cyclohexane-1-carboxylic acid trihydrochloride] | > 300 | > 100000 | 1 to 99
CC[C@H](C)[C@H](N)C(=O)NC[C@@H]1CC[C@@H](CCB(O)O)C[C@]1(N)C(=O)O [Example 10, (1R,2S,5R)-1-Amino-2-(((2S,3S)-2-amino-3-methylpentanamido)methyl)-5-(2-boronoethyl)cyclohexane-1-carboxylic acid dihydrochloride] | > 300 | > 100000 | 1 to 99
CC(C)(C)[C@H](N)C(=O)NC[C@@H]1CC[C@@H](CCB(O)O)C[C@]1(N)C(=O)O [Example 12, (1R,2S,5R)-1-Amino-2-(((S)-2-amino-3,3-dimethylbutanamido)methyl)-5-(2-boronoethyl)cyclohexane-1-carboxylic acid dihydrochloride] | 200 to 299 | > 100000 | 1 to 99
N=C(N)NCCC[C@H](N)C(=O)NC[C@@H]1CC[C@@H](CCB(O)O)C[C@]1(N)C(=O)O [Example 13, (1R,2S,5R)-1-Amino-2-(((S)-2-amino-5-guanidinopentanamido)methyl)-5-(2-boronoethyl)cyclohexane-1-carboxylic acid trihydrochloride] | > 300 | > 100000 | 1 to 99
CSCC[C@H](N)C(=O)NC[C@@H]1CC[C@@H](CCB(O)O)C[C@]1(N)C(=O)O [Example 17, (1R,2S,5R)-1-Amino-2-(((S)-2-amino-4-(methylthio)butanamido)methyl)-5-(2-boronoethyl)cyclohexane-1-carboxylic acid dihydrochloride] | 200 to 299 | 10000 to 100000 | 1 to 99
CC(C)[C@H](N)C(=O)NC[C@@H]1CC[C@@H](CCB2OC(=O)CC(CC(=O)O)(C(=O)O)O2)C[C@]1(N)C(=O)O (stereo partly drawn) [Example 33, 2-(2-((1R,3R,4S)-3-Amino-4-(((S)-2-amino-3-methylbutanamido)methyl)-3-carboxycyclohexyl)ethyl)-4-(carboxymethyl)-6-oxo-1,3,2-dioxaborinane-4-carboxylic acid dihydrochloride] | > 300 |  | 100 to 199
CC(C)[C@H](N)C(=O)NC[C@H]1CC[C@@H](CCB(O)O)C[C@]1(N)C(=O)O [Example 34, (1R,2R,5R)-1-Amino-2-(((S)-2-amino-3-methylbutanamido)methyl)-5-(2-boronoethyl)cyclohexane-1-carboxylic acid dihydrochloride] | > 300 |  | > 300
CCN[C@]1(C(=O)O)C[C@H](CCB(O)O)CC[C@H]1CNC(=O)[C@H](C)N [Example 35, (1R,2S,5R)-2-(((S)-2-Aminopropanamido)methyl)-5-(2-boronoethyl)-1-(ethylamino)cyclohexane-1-carboxylic acid dihydrochloride] | > 300 |  | > 300
CN[C@]1(C(=O)O)C[C@H](CCB(O)O)CC[C@H]1CNC(=O)[C@H](C)N [Example 36, (1R,2S,5R)-2-(((S)-2-Aminopropanamido)methyl)-5-(2-boronoethyl)-1-(methylamino)cyclohexane-1-carboxylic acid dihydrochloride] | > 300 |  | > 300
